The test system of the assay is BDF1 mice, P388 leukemia ip, median survival T/C. As to the kind of experiment: NCI In Vivo Anticancer Drug Screen. Data for tumor model P388 Leukemia (intraperitoneal) in B6D2F1 (BDF1) mice. The settings on record: endpoint: median survival time, higher = longer survival. An outline of the steps:
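Transplantable tumour in mice; compound vs vehicle dosing; survival scored; ratio of treated to control reported.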

Where [1] appears, read: dose: 12.5 mg/kg/injection, schedule: Q04DX003 (ip), vehicle: saline with Tween-80.
Where [2] appears, read: dose: 25.0 mg/kg/injection, schedule: Q04DX003 (ip), vehicle: saline with Tween-80.
[3] abbreviates: dose: 50.0 mg/kg/injection, schedule: Q04DX003 (ip), vehicle: saline with Tween-80.
The mark [4] stands for this setting: dose: 12.5 mg/kg/injection, schedule: Q01DX009 (ip), vehicle: Klucel (hydroxypropylcellulose) (HPC).
Setting [5] is: dose: 100.0 mg/kg/injection, schedule: Q01DX009 (ip), vehicle: saline.
Where [6] appears, read: dose: 100.0 mg/kg/injection, schedule: Q04DX003 (ip), vehicle: saline.
Setting [7] is: dose: 200.0 mg/kg/injection, schedule: Q01DX009 (ip), vehicle: saline.
[8] abbreviates: dose: 200.0 mg/kg/injection, schedule: Q04DX003 (ip), vehicle: saline.
[9] abbreviates: dose: 400.0 mg/kg/injection, schedule: Q01DX009 (ip), vehicle: saline.
[10] abbreviates: dose: 400.0 mg/kg/injection, schedule: Q04DX003 (ip), vehicle: saline.
Setting [11] is: dose: 200.0 mg/kg/injection, schedule: Q04DX003 (ip), vehicle: Klucel (hydroxypropylcellulose) (HPC).
Where [12] appears, read: dose: 25.0 mg/kg/injection, schedule: Q01DX009 (ip), vehicle: saline.
[13] abbreviates: dose: 50.0 mg/kg/injection, schedule: Q01DX009 (ip), vehicle: saline with Tween-80.
Where [14] appears, read: dose: 100.0 mg/kg/injection, schedule: Q01DX009 (ip), vehicle: saline with Tween-80.
Where [15] appears, read: dose: 50.0 mg/kg/injection, schedule: Q04DX003 (ip), vehicle: saline sonified.
Setting [16] is: dose: 100.0 mg/kg/injection, schedule: Q04DX003 (ip), vehicle: saline sonified.

Where “and” joins values, the source holds several entries; their conditions need not be identical. Equal entries are not always repeated. Toxic doses and inconclusive results are not listed.

With `CCCCN1CCC2(CC1)COCc1ccccc12`, the T/C reads like this: under setting [1], 104 % of control; under setting [2], 98 % of control; under setting [3], 95 % of control.
In the case of `CCCCCCC(C)NCC(O)COc1cccc(C)c1` (configuration not stated), the T/C reads like this: (dose: 3.12 mg/kg/injection, schedule: Q01DX009 (ip), vehicle: Klucel (hydroxypropylcellulose) (HPC)) 113 % of control; under setting [4], 116 % of control; (dose: 25.0 mg/kg/injection, schedule: Q01DX009 (ip), vehicle: Klucel (hydroxypropylcellulose) (HPC)) 120 % of control.
Regarding `C(=N/NC1=NCCN1)/c1c2ccccc2c(/C=N\NC2=NCCN2)c2ccccc12`, the T/C runs as follows: (dose: 1.56 mg/kg/injection, schedule: Q04DX002 (ip), vehicle: saline) 209 % of control; (dose: 3.12 mg/kg/injection, schedule: Q04DX002 (ip), vehicle: saline) 229 % of control; (dose: 6.25 mg/kg/injection, schedule: Q04DX002 (ip), vehicle: saline) 239 % of control; (dose: 12.5 mg/kg/injection, schedule: Q04DX002 (ip), vehicle: saline) 209 % of control; (dose: 25.0 mg/kg/injection, schedule: Q04DX002 (ip), vehicle: saline) 229 % of control; (dose: 50.0 mg/kg/injection, schedule: Q04DX002 (ip), vehicle: saline) 280 % of control.
On to `CC1=CCCC1`, for which the T/C runs as follows: under setting [5], 118 % of control; under setting [6], 113 % of control; under setting [7], 118 % of control; under setting [8], 104 % of control; under setting [9], 118 % of control; under setting [10], 104 % of control.
As to `O=C(C[n+]1ccc2ccccc2c1)c1ccccc1`, the T/C was 100 % of control under setting [1], 100 % of control under setting [2] and 100 % of control under setting [3].
Take `O=[N+]([O-])c1cc([N+](=O)[O-])c(Cl)cc1Cl`: the T/C (dose: 3.13 mg/kg/injection, schedule: Q01DX009 (ip), vehicle: Klucel (hydroxypropylcellulose) (HPC)) is 104 % of control; the T/C (dose: 6.25 mg/kg/injection, schedule: Q01DX009 (ip), vehicle: Klucel (hydroxypropylcellulose) (HPC)) is 104 % of control; the T/C under setting [4] is 109 % of control; the T/C (dose: 50.0 mg/kg/injection, schedule: Q04DX003 (ip), vehicle: Klucel (hydroxypropylcellulose) (HPC)) is 103 % of control; the T/C under setting [11] is 92 % of control.
For `Cc1ccc2ccccc2n1`, the T/C is 87 % of control under setting [6] and 91 % of control under setting [8].
As for `O=C(O)CSC(CC(=O)O)C(F)(F)C(F)(F)C(F)(F)F` (configuration not stated), the T/C is, setting by setting: under setting [12], 90 % of control; (dose: 25.0 mg/kg/injection, schedule: Q04DX003 (ip), vehicle: saline) 109 % of control; (dose: 50.0 mg/kg/injection, schedule: Q01DX009 (ip), vehicle: saline) 100 % of control; (dose: 50.0 mg/kg/injection, schedule: Q04DX003 (ip), vehicle: saline) 109 % of control; (dose: 75.0 mg/kg/injection, schedule: Q01DX009 (ip), vehicle: saline) 110 % of control; under setting [5], 95 % of control and 115 % of control. Further, the T/C under setting [6] was 109 % of control; the T/C (dose: 150.0 mg/kg/injection, schedule: Q01DX009 (ip), vehicle: saline) is 120 % of control; the T/C under setting [7] was 120 % of control; the T/C (dose: 300.0 mg/kg/injection, schedule: Q01DX009 (ip), vehicle: saline) was 110 % of control; the T/C under setting [10] is 122 % of control.
Consider `C#CC(C)(C)OCC(CCl)OC(N)=O` (configuration not stated), for which the T/C was 105 % of control under setting [3]; 110 % of control (dose: 100.0 mg/kg/injection, schedule: Q04DX003 (ip), vehicle: saline with Tween-80); 100 % of control (dose: 200.0 mg/kg/injection, schedule: Q04DX003 (ip), vehicle: saline with Tween-80); 115 % of control (dose: 400.0 mg/kg/injection, schedule: Q04DX003 (ip), vehicle: saline with Tween-80).
For `CCOC(=O)c1cnn(C)c1N`, the T/C (dose: 25.0 mg/kg/injection, schedule: Q01DX009 (ip), vehicle: saline with Tween-80) is 93 % of control; the T/C (dose: 25.0 mg/kg/injection, schedule: Q04DX003 (ip), vehicle: water) was 109 % of control; the T/C under setting [13] is 102 % of control; the T/C (dose: 50.0 mg/kg/injection, schedule: Q04DX003 (ip), vehicle: water) was 99 % of control; the T/C under setting [14] is 100 % of control; the T/C (dose: 100.0 mg/kg/injection, schedule: Q04DX003 (ip), vehicle: water) is 114 % of control. For the same molecule, the T/C was 91 % of control (dose: 200.0 mg/kg/injection, schedule: Q04DX003 (ip), vehicle: water) and 116 % of control (dose: 400.0 mg/kg/injection, schedule: Q04DX003 (ip), vehicle: water).
On to `CC/C(=C(\CC)c1ccc(OCCN(CC)CC)cc1)c1ccc(OCCN(CC)CC)cc1`, for which the T/C was 100 % of control (dose: 12.5 mg/kg/injection, schedule: Q01DX010 (ip), vehicle: carboxymethylcellulose (CMC)) and 105 % of control (dose: 25.0 mg/kg/injection, schedule: Q01DX010 (ip), vehicle: carboxymethylcellulose (CMC)).
For the molecule `O=S1(=O)CC(S(=O)(=O)c2ccccc2)C1`, the T/C (dose: 100.0 mg/kg/injection, schedule: Q01DX001 (ip), vehicle: saline with Tween-80) was 99 % of control; the T/C (dose: 200.0 mg/kg/injection, schedule: Q01DX001 (ip), vehicle: saline with Tween-80) is 103 % of control; the T/C (dose: 400.0 mg/kg/injection, schedule: Q01DX001 (ip), vehicle: saline with Tween-80) was 100 % of control.
For the molecule `Nc1nc(N)c2cc(S(=O)(=O)c3ccc4ccccc4c3)ccc2n1`, the T/C reads like this: (dose: 50.0 mg/kg/injection, schedule: Q01DX009 (ip), vehicle: Klucel (hydroxypropylcellulose) (HPC)) 90 % of control; (dose: 100.0 mg/kg/injection, schedule: Q01DX009 (ip), vehicle: Klucel (hydroxypropylcellulose) (HPC)) 109 % of control; (dose: 100.0 mg/kg/injection, schedule: Q04DX003 (ip), vehicle: Klucel (hydroxypropylcellulose) (HPC)) 90 % of control; (dose: 200.0 mg/kg/injection, schedule: Q01DX009 (ip), vehicle: Klucel (hydroxypropylcellulose) (HPC)) 95 % of control; under setting [11], 104 % of control; (dose: 400.0 mg/kg/injection, schedule: Q04DX003 (ip), vehicle: Klucel (hydroxypropylcellulose) (HPC)) 104 % of control.
In the case of `c1ccc2cc3nc4cc5ccccc5cc4nc3cc2c1`, the T/C reads like this: under setting [14], 99 % of control; (dose: 200.0 mg/kg/injection, schedule: Q01DX009 (ip), vehicle: saline with Tween-80) 100 % of control; (dose: 400.0 mg/kg/injection, schedule: Q01DX009 (ip), vehicle: saline with Tween-80) 100 % of control.
For `Nc1cc(Cl)c2cccnc2c1O`, the T/C runs as follows: (dose: 12.5 mg/kg/injection, schedule: Q01DX009 (ip), vehicle: saline) 111 % of control and 115 % of control; (dose: 22.0 mg/kg/injection, schedule: Q01DX009 (ip), vehicle: saline) 118 % of control; under setting [12], 104 % of control and 117 % of control; (dose: 44.0 mg/kg/injection, schedule: Q04DX003 (ip), vehicle: saline sonified) 100 % of control; under setting [15], 100 % of control; (dose: 66.0 mg/kg/injection, schedule: Q04DX003 (ip), vehicle: saline sonified) 118 % of control. Besides, the T/C under setting [16] is 113 % of control.
As for `CC(=O)Nc1onc(C)c1[N+](=O)[O-]`, the T/C is 100 % of control under setting [5]; 104 % of control under setting [6]; 100 % of control under setting [7]; 109 % of control under setting [8]; 104 % of control under setting [9]; 109 % of control under setting [10].
With `CCCCN(CCCC)CCC(O)c1cc(-c2ccc(C(F)(F)F)cc2)nc(C(F)(F)F)c1` (configuration not stated), under setting [13], the T/C is 106 % of control.
Turning to `CCCCCC(C1=NC(C)(C)CC(C)O1)c1ccccc1` (configuration not stated), the T/C was 100 % of control under setting [15]; 100 % of control under setting [16]; 100 % of control (dose: 200.0 mg/kg/injection, schedule: Q04DX003 (ip), vehicle: saline sonified).

These data come from PubChem BioAssay AID328 (DTP/NCI, 2004).
